Patent publication US11779602B2, “Methods of use for CAR T cells” (ENDOCYTE, INC., priority 2018, dated 2023)

Key:
FR-negative HOS-143b = experiment: Co-culture at 10 nM EC17, varying E/T ratios: specific lysis; format: cell-based, human; details: 10 nM EC17, 48 hours
Method: After 24 hours of co-culture, supernatants were harvested to determine tumor cell killing. To study the kinetics of T cell activation and FR correlation in vitro (FIGS. 60A-L), co-cultures were carried out in FR+/− cell lines at varying E/T ratios (1:27, 1:9, 1:3, 1:1, 3:1) in the continuous presence of 10 nM EC17. The kinetics of tumor cell killing were quantified after 16 and 48 hours of co-culture. Meanwhile, a portion of the supernatants was taken after 44 hours of co-culture for measurement of IFNγ, IL-2 and TNFα. Using Promega's CytoTox 96® LDH assay kit, target cell killing was quantified and expressed as specific lysis (%) which was normalized to basal levels in the absence of EC17 at defined E/T ratios. The LEGENDplex™ human Th1 cytokine panel (BioLegend, San Diego, Calif.) was used to determine CAR-T cell derived cytokines.
Specific lysis (%) was quantified after 16 and 48 hours of co-culture, and Th1 cytokines (IFNγ, IL-2, TNFα) in culture media were measured after 44 hours of co-culture. […] It generally took a longer time (48 hours) and a higher E/T ratio (≥1:1) to see significant activity in the lowest FR-expressing OV90 cells (FIGS. 60A-G). The high FR-expressing KB cells responded […] to cause significant cell death (FIG. 60F).

[1] = test system: FR+ tumor cell targets (MDA-MB-231, THP1-FRβ, HOS-FRα); experiment: CAR-T cell activation markers (CD69, CD137, PD1) in co-culture with EC17-preloaded targets; format: cell-based, human; details: E/T 1:1, 24 hours
Method: To study CAR-T cell activation in the presence of FR+ tumor cell targets (FIGS. 53A-D), co-culture experiments were initially carried out with MDA-MB-231, THP1-FRβ and HOS-FRα. […] After 24 hours of co-culture, the surface expression of T cell activation markers CD69, CD137 (4-1BB), and PD1 were analyzed by flow cytometry. For T cell exhaustion studies (FIGS. 54A-C), FR+ (KB, MDA-MB-231, HOS-FRα^fLuc, THP1-FRβ) and FR-negative (HOS-143b^fLuc, THP1-FG12) tumor cell lines were used as targets. Here, target cells were incubated on day 0 without or with 0.1 and 10 nM of EC17 for 30 min at 37° C. and the status of EC17 “pre-loading” was assessed by counterstaining cell-surface EC17 with an anti-FITC antibody (FIG. 61A). Three days later, the surface expression of PD1, LAG3, and TIM3 inhibitor receptors on co-cultured CAR-T cells were analyzed and higher frequencies of double- and triple-positive cells were considered approaching an exhausted phenotype.
To examine antigen-dependent CAR-T cell activation, MDA-MB-231, THP1-FRβ and HOS-FRα cells were preloaded with 100 nM EC17 over 30 min. […] After 24 hours of co-culture, we measured the surface expression of T cell activation markers CD69, CD137 (4-1BB) and PD1 (FIGS. 53A-D). […] Three days later, co-cultured CAR-T cells were measured for upregulation and co-expression of T cell activation/exhaustion markers PD1, LAGS and TIM3. […]

Compound: NC1=NC2N=CC(CNc3ccc(C(=O)N[C@@H](CCC(=O)NCCNC(=S)Nc4ccc(-c5c6ccc(=O)cc-6oc6cc(O)ccc56)c(C(=O)O)c4)C(=O)O)cc3)=NC2C(=O)N1 (stereo partly drawn) [EC17, FA-(γ)-ethylenediamine-FITC]
- specific lysis response (FR-negative HOS-143b): essentially unharmed
- CAR-T cell activation (CD69, CD137, PD1) ([1]; MDA-MB-231 and HOS-FRα preloaded with 100 nM EC17 30 min): strong activators
- CAR-T cell activation (CD69, CD137, PD1) ([1]; THP1-FRβ preloaded with 100 nM EC17 30 min): did trigger CAR-T cell activation, but at lower levels
